Experimental findings from patent US8022102B2, “Unsaturated tetracyclic tetrahydrofuran derivatives” (Janssen Pharmaceutica, NV, priority 2004, dated 2011) are described below.

Structures are written as SMILES.

Test [1] addresses T1, human cloned 5-HT2C receptor (Homo sapiens, UniProt P28335).
T1 construct: expressed in transfected cells; host or cells: CHO cells
T1 sequence (P28335 33-458): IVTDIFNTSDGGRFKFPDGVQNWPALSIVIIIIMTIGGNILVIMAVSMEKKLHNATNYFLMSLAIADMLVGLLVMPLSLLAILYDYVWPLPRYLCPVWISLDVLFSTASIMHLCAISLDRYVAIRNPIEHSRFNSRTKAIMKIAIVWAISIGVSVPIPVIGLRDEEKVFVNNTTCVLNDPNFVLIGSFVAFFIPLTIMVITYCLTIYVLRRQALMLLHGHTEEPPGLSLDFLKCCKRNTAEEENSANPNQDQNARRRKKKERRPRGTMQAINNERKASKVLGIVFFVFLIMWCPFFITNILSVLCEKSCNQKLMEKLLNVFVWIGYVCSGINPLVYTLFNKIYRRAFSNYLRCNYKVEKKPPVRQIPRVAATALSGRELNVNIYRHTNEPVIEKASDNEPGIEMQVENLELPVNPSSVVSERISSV
As to the kind of experiment: In vitro binding affinity for 5-HT2C receptor (radioligand binding). The following applies: human cloned 5-HT2C receptor, radioligand binding; read-out: h-5HT2C (converted). The method, then:
(§1) During the incubation, the radioligands bind to the receptor. When equilibrium of binding is reached, the receptor bound radioactivity is separated from the non-bound radioactivity, and the receptor bound activity is counted. The interaction of the test compounds with the receptors is assessed in competition binding experiments. Various concentrations of the test compound are added to the incubation mixture containing the tissue preparation and the radioligand. Binding of the radioligand will be inhibited by the test compound in proportion to its binding affinity and its concentration.

A further test has as its target T2, NET (Rattus norvegicus, UniProt Q9WTR4).
T2 construct: Cortex from rat brain was collected and homogenised; from tissue; host or cells: rat brain cortex
As to the kind of experiment: In vitro determination of NET reuptake inhibition ([3H]Nixosetine binding, rat brain cortex). The following applies: rat brain cortex, [3H]Nixosetine; read-out: NET Reuptake Inhibition (converted). The method, then:
Cortex from rat brain was collected and homogenised using an Ultra-Turrax T25 and a Dual homogeniser in ice-cold homogenising buffer containing Tris, NaCl and KCl (50 mM, 120 mM and 5 mM, respectively, pH 7.4) prior to dilution to an appropriate protein concentration optimised for specific and non-specific binding. […] Membrane-bound activity was detected by filtration through a Packard Filtermate harvester onto GF/B Unifilterplates, washed with ice-cold Tris-HCl buffer, containing NaCl and KCl (50 mM, 120 mM and 4 mM; pH 7.4; 6×0.5 ml). Filters were allowed to dry for 24 h before adding scintillation fluid. Scintillation fluid was allowed to saturate filters for 24 h before counting in a Topcount scintillation counter. Percentage specific bound and competition binding curves were calculated using S-Plus software (Insightful).

In test [2] the target is T3, human Dopamine D2L receptor (Homo sapiens, UniProt P14416).
T3 construct: expressed in transfected cells; host or cells: CHO cells
As to the kind of experiment: In vitro binding affinity for human D2L receptor ([3H]Spiperone). The conditions noted are these: human D2L receptor-transfected CHO cell membranes, [3H]Spiperone; read-out: h-D2L (converted). The protocol: Frozen membranes of human Dopamine D2L receptor-transfected CHO cells were thawed, briefly homogenised using an Ultra-Turrax T25 homogeniser and diluted in Tris-HCl assay buffer containing NaCl, CaCl2, MgCl2, KCl (50, 120, 2, 1, and 5 mM respectively, adjusted to pH 7.7 with HCl) to an appropriate protein concentration optimised for specific and non-specific binding. Radioligand [^3H]Spiperone (NEN, specific activity ˜70 Ci/mmol) was diluted in assay buffer at a concentration of 2 nmol/L. Prepared radioligand (50 μl), along with 50 μl of either the 10% DMSO control, Butaclamol (10^−6 mol/l final concentration), or compound of interest, was then incubated (30 min, 37° C.) with 400 μl of the prepared membrane solution. Membrane-bound activity was filtered through a Packard Filtermate harvester onto GF/B Unifilterplates and washed with ice-cold Tris-HCl buffer (50 mM; pH 7.7; 6×0.5 ml). Filters were allowed to dry before adding scintillation fluid and counting in a Topcount scintillation counter. Percentage specific bound and competition binding curves were calculated using S-Plus software (Insightful).

For test [3], the target named is T4, human cloned 5-HT2A receptor (Homo sapiens, UniProt P28223).
T4 construct: expressed in transfected cells; host or cells: L929 cells
As to the kind of experiment: In vitro binding affinity for 5-HT2A receptor (radioligand binding). The following applies: human cloned 5-HT2A receptor, radioligand binding; read-out: h-5HT2A (converted). The protocol:
as §1, with “concentration. The affinities of the compounds for the 5-HT2 receptors were measured by means of radioligand binding studies conducted with: (a) human cloned 5-HT2A receptor, expressed in L929 cells using [^125I]R91150 as radioligand and (b) human cloned 5-HT2C receptor, expressed in CHO cells using [^3H]mesulergine as radioligand.” for “concentration.”

T3 sequence (P14416 whole entry): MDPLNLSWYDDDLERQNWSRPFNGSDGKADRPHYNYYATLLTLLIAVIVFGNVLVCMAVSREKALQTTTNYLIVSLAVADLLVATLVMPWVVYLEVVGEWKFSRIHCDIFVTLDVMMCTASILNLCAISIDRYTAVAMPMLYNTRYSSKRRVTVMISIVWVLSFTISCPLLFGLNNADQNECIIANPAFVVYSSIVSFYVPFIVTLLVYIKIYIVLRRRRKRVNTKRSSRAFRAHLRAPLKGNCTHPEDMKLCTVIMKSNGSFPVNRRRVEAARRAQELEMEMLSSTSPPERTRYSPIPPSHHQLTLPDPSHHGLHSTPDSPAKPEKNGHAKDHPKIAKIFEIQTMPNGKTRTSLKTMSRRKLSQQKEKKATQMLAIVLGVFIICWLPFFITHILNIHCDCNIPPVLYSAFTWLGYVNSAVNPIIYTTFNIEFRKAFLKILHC
T4 sequence (P28223 whole entry): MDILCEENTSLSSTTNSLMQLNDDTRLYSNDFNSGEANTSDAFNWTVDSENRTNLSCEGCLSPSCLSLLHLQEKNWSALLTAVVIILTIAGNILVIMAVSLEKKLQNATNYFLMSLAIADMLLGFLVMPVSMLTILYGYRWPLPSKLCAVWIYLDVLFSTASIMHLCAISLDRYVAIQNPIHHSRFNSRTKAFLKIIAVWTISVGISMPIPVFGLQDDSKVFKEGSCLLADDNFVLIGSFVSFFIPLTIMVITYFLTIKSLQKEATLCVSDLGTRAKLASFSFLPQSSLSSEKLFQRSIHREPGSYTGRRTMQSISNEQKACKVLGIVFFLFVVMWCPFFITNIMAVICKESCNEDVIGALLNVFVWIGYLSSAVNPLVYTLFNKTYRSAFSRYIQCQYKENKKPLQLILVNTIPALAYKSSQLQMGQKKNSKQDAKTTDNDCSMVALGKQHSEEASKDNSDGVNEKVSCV
T2 sequence (Q9WTR4 1-597): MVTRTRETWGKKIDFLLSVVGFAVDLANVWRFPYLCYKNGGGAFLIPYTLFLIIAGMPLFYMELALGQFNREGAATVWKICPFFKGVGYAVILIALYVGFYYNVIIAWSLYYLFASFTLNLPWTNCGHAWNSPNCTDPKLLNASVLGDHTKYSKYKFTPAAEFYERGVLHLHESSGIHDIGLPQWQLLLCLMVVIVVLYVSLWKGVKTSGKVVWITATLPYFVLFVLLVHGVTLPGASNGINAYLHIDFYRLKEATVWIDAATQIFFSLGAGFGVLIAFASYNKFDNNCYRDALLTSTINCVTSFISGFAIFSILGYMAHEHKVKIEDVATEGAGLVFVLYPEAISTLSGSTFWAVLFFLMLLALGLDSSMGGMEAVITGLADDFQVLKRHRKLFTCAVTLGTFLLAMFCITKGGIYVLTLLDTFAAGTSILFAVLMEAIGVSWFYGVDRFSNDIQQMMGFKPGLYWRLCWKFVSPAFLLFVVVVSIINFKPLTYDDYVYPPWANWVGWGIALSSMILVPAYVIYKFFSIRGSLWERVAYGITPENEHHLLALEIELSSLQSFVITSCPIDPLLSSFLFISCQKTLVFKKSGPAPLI

For the molecule `CCNCC1CC2=C(O1)c1cc(Br)ccc1Cc1ccccc12` (stereo not drawn) [Compound 17], the IC50 in test [1] is 1.26 nM; at NET, 100 nM; in test [2], 25.1 nM.

With `CCS(=O)(=O)N1CCN(CC2CC3=C(O2)c2cc(F)ccc2Cc2ccccc23)CC1` (stereo not drawn) [Compound 46], the figures for the IC50 (in test [1]; on NET; in test [2]) were 200 nM, > 10000 nM and 501 nM, respectively.

Turning to `CS(=O)(=O)N1CCN(CC2CC3=C(O2)c2cc(F)ccc2Cc2ccccc23)CC1` (stereo not drawn) [Compound 44], the results for the IC50 (in test [1]; on NET; in test [2]) were 50.1 nM, > 10000 nM and 158 nM, respectively.

For `COC(=O)CC(=O)N1CCN(CC2CC3=C(O2)c2cc(F)ccc2Oc2ccccc23)CC1` (stereo not drawn) [Compound 60], the IC50 in test [1] is 79.4 nM; on NET, 1580 nM; in test [2], 2000 nM.

On to `O=C(Nc1ccc(F)cc1)N1CCN(CC2CC3=C(O2)c2cc(F)ccc2Oc2ccccc23)CC1` (stereo not drawn) [Compound 86], for which the IC50 is 39.8 nM in test [1], > 10000 nM on NET and 251 nM in test [2].

On to `OCCNCC1CC2=C(O1)c1cc(Br)ccc1Cc1ccccc12` (stereo not drawn) [Compound 20], for which the IC50 is 1.58 nM in test [1], 501 nM at NET and 31.6 nM in test [2].

With `CCNCC1CC2=C(O1)c1cc(F)ccc1Cc1ccccc12` (single isomer, unassigned) [Compound 16], the IC50 is 12.6 nM in test [1], 158 nM at NET and 316 nM in test [2].

Consider `O=C(C1CC1)N1CCN(CC2CC3=C(O2)c2cc(F)ccc2Oc2ccccc23)CC1` (stereo not drawn) [Compound 58], for which the IC50 in test [1] is 158 nM; on NET, 1580 nM; in test [2], 1580 nM.

Regarding `O=S(=O)(Cc1ccccc1)N1CCN(CC2CC3=C(O2)c2cc(F)ccc2Oc2ccccc23)CC1` (stereo not drawn) [Compound 52], the IC50 in test [3] is 100 nM; in test [1], 200 nM; in test [2] it was 158 nM.

`CNCC1CC2=C(O1)c1cc(F)ccc1Sc1ccccc12` (single isomer, unassigned) [Compound 13]: the IC50 in test [3] was 3.16 nM; in test [1], 3.98 nM; in test [2], 200 nM.

With `CN(CC(=O)N(C)C)C[C@H]1CC2=C(O1)c1cc(F)ccc1Cc1ccccc12` [Compound 117], the IC50 in test [3] was 10 nM; in test [1] it was 2 nM; in test [2] it was 2510 nM.

For the molecule `O=C(Nc1ccccc1)N1CCN(CC2CC3=C(O2)c2cc(F)ccc2Cc2ccccc23)CC1` (stereo not drawn) [Compound 83], the IC50 in test [3] is 10 nM; in test [1] it was 10 nM; in test [2], 251 nM.

Consider `CCNCC1CC2=C(O1)c1cc(F)ccc1Sc1ccccc12` (stereo not drawn) [Compound 18], for which the IC50 is 0.398 nM in test [3], 1.26 nM in test [1] and 15.8 nM in test [2].

On to `COc1ccc(NC(=O)N2CCN(CC3CC4=C(O3)c3cc(F)ccc3Oc3ccccc34)CC2)cc1` (stereo not drawn) [Compound 90], for which the IC50 is 6.31 nM in test [3], 31.6 nM in test [1] and 501 nM in test [2].

Take `O=S(=O)(Cc1ccccc1)N1CCN(CC2CC3=C(O2)c2cc(F)ccc2Cc2ccccc23)CC1` (stereo not drawn) [Compound 51]: the IC50 in test [3] was 79.4 nM; in test [1] it was 200 nM; in test [2] it was 100 nM.

In the case of `COc1ccccc1NC[C@@H]1CC2=C(O1)c1cc(F)ccc1Cc1ccccc12` [Compound 106], the IC50 was 6.31 nM in test [3], 31.6 nM in test [1] and > 10000 nM in test [2].

As for `CCCC(=O)N1CCN(CC2CC3=C(O2)c2cc(F)ccc2Oc2ccccc23)CC1` (stereo not drawn) [Compound 56], the IC50 was 100 nM in test [3], 100 nM in test [1] and 1260 nM in test [2].

`COc1ccc(C(=O)N2CCN(CC3CC4=C(O3)c3cc(F)ccc3Oc3ccccc34)CC2)cc1` (stereo not drawn) [Compound 74]: the IC50 was 12.6 nM in test [3], 100 nM in test [1] and 251 nM in test [2].

For `CCOC(=O)N1CCN(CC2CC3=C(O2)c2cc(F)ccc2Cc2ccccc23)CC1` (stereo not drawn) [Compound 61], the IC50 was 10 nM in test [3], 20 nM in test [1] and 200 nM in test [2].

With `OCCNCC1CC2=C(O1)c1cc(F)ccc1Cc1ccccc12` (stereo not drawn) [Compound 19], the IC50 was 1.58 nM in test [3], 1 nM in test [1] and 63.1 nM in test [2].

As for `CN(C)CC1CC2=C(O1)c1cc(Br)ccc1Cc1ccccc12` (stereo not drawn) [Compound 21], the IC50 in test [1] was 0.794 nM; at NET, 251 nM; in test [2] it was 15.8 nM.

Turning to `CNCC1CC2=C(O1)c1cc(Br)ccc1Cc1ccccc12` (stereo not drawn) [Compound 5], the values for the IC50 in test [3], in test [1] and in test [2] were 0.794 nM, 0.794 nM and 31.6 nM, respectively.

For `COc1ccc(NC(=O)N2CCN(CC3CC4=C(O3)c3cc(F)ccc3Cc3ccccc34)CC2)cc1` (stereo not drawn) [Compound 89], the IC50 in test [3] is 2 nM; in test [1] it was 3.16 nM; in test [2] it was 39.8 nM.

As to `CN(CC(N)=O)C[C@H]1CC2=C(O1)c1cc(F)ccc1Cc1ccccc12` [Compound 115], the IC50 in test [3] was 10 nM; in test [1], 3.98 nM; in test [2], 1260 nM.

Regarding `CNCC1CC2=C(O1)c1ccccc1C(C)c1ccccc12` (stereo not drawn) [Compound 10], the IC50 in test [1] was 25.1 nM; on NET, 50.1 nM; in test [2], 1580 nM.

Consider `CNC(=N)CN(C)CC1CC2=C(O1)c1cc(F)ccc1Cc1ccccc12` (stereo not drawn) [Compound 138], for which the IC50 in test [3] is 12.6 nM; in test [1], 6.31 nM; in test [2], 3160 nM.

`Fc1ccc2c(c1)C1=C(CC(CN3CCOCC3)O1)c1ccccc1C2` (stereo not drawn) [Compound 43]: the IC50 in test [1] was 20 nM; on NET, 1580 nM; in test [2], 79.4 nM.

`CC(=O)N1CCN(CC2CC3=C(O2)c2cc(F)ccc2Cc2ccccc23)CC1` (stereo not drawn) [Compound 53]: the IC50 was 3.98 nM in test [3], 7.94 nM in test [1] and 200 nM in test [2].

For the molecule `CCNCC1CC2=C(O1)c1cc(F)ccc1Cc1ccccc12` (single isomer, unassigned) [Compound 15], the IC50 in test [1] is 0.794 nM; on NET, 3.16 nM; in test [2], 39.8 nM.

In the case of `OCCN1CCN(CC2CC3=C(O2)c2cc(F)ccc2Sc2ccccc23)CC1` (stereo not drawn) [Compound 42], the IC50 is 3.16 nM in test [3], 10 nM in test [1] and 5.01 nM in test [2].

For `Fc1ccc2c(c1)C1=C(CC(CN3CCC4(CC3)OCCO4)O1)c1ccccc1C2` (stereo not drawn) [Compound 39], the IC50 in test [1] was 50.1 nM; on NET it was > 10000 nM; in test [2] it was 50.1 nM.

`OCCC1CCN(CC2CC3=C(O2)c2cc(F)ccc2Cc2ccccc23)CC1` (stereo not drawn) [Compound 38]: the results for the IC50 in test [3], in test [1] and in test [2] were 0.316 nM, 1.26 nM and 2 nM, respectively.

As for `CN(CC(=O)c1ccccc1)C[C@H]1CC2=C(O1)c1cc(F)ccc1Cc1ccccc12` [Compound 114], the IC50 in test [3] is 3.16 nM; in test [1] it was 1.58 nM; in test [2] it was 794 nM.
